Test systems include HOP-92; HCT-116; UO-31; UACC-257; SNB-19; OVCAR-3; LOX IMVI; Malme-3M; HL-60; NCI-H23; IGROV-1; SK-OV-3; OVCAR-8; RPMI-8226; COLO 205; A549; CAKI-1; HCT-15; KM12; SF-295.
Holding throughout (test): NCI anticancer screen, dose series, 48 h

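Each compound was tested at five concentrations against cells in 96-well plates for 48 hours. GI50 is the concentration that inhibits growth by half.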 Activity calls are given as the source filed them. Cut-off read from the data, not from the text of the source: active = GI50 up to about 1.1 µM and inactive = higher.

In the case of `CCCCCCCCCCCCCCCCOCC(COP(=O)([O-])OCC[N+](C)(C)C)OCCCCCCCCCCCCCCCC` (stereo not given), the GI50 in the experiment on HOP-92, in the experiment on HCT-116, with UO-31, in the experiment on UACC-257, with SNB-19 and with OVCAR-3 was > 100 µM (inactive) in each case. For the same molecule, the GI50 with LOX IMVI, in the experiment with Malme-3M, with HL-60, in the experiment on NCI-H23, in the experiment on IGROV-1 and in the experiment with SK-OV-3 was > 100 µM (inactive) each time. The GI50 in the experiment on OVCAR-8 is > 100 µM (inactive); in the experiment on RPMI-8226, > 100 µM (inactive); in the experiment on COLO 205, > 100 µM (inactive); with A549, > 10 µM (inactive); in the experiment on CAKI-1, > 100 µM (inactive); in the experiment on HCT-15, > 100 µM. The GI50 in the experiment on KM12 and with SF-295 was > 100 µM (inactive) throughout.
Turning to `CC(=O)Nc1ccc(C2=N/C(=C\c3ccc(Cl)c(Cl)c3)C(=O)O2)cc1`, the GI50 with HOP-92 was 68.9 µM (inactive); in the experiment on HCT-116, > 100 µM (inactive); in the experiment with UO-31 it was > 100 µM (inactive); in the experiment with UACC-257, > 100 µM (inactive); with SNB-19 it was > 100 µM (inactive); in the experiment with OVCAR-3, > 100 µM (inactive). In addition, the GI50 with LOX IMVI is 30 µM (inactive); in the experiment on Malme-3M, > 100 µM (inactive); in the experiment on HL-60, > 100 µM (inactive); in the experiment on NCI-H23, > 100 µM (inactive); in the experiment on IGROV-1, > 100 µM (inactive); in the experiment on SK-OV-3, > 100 µM (inactive). In addition, the GI50 was > 100 µM (inactive) in the experiment on OVCAR-8; > 100 µM (inactive) in the experiment with RPMI-8226; > 100 µM (inactive) with COLO 205; > 100 µM (inactive) in the experiment on A549; > 100 µM (inactive) in the experiment with CAKI-1; > 100 µM in the experiment on HCT-15. Also, the GI50 with KM12 and in the experiment with SF-295 was > 100 µM (inactive) in each case.
On to `C=C1C(=O)OC2/C=C(\C)CC/C=C(/C)CC(OC(=O)/C(=C/CO)CO)C12` (stereo not given), for which the GI50 with HOP-92 is 26.7 µM (inactive); in the experiment with HCT-116, > 10 µM (inactive); in the experiment on UO-31, 17 µM (inactive); with UACC-257, 16.4 µM (inactive); in the experiment with SNB-19 it was 65 µM (inactive); with OVCAR-3, 25.2 µM (inactive). Also, the GI50 was 23.4 µM (inactive) in the experiment on LOX IMVI; 20.1 µM (inactive) with Malme-3M; 3.33 µM (inactive) in the experiment with HL-60; 18.2 µM (inactive) with NCI-H23; 33.5 µM (inactive) with IGROV-1; > 100 µM (inactive) with SK-OV-3. The GI50 is 32.4 µM (inactive) with OVCAR-8; 23.2 µM (inactive) in the experiment on RPMI-8226; 16.9 µM (inactive) in the experiment with COLO 205; 66.2 µM (inactive) in the experiment with A549; 18.9 µM (inactive) in the experiment on CAKI-1; 17.3 µM in the experiment on HCT-15. For the same molecule, the results for the GI50 with KM12 and with SF-295 were > 100 µM (inactive) and 93.5 µM (inactive), respectively.
On to `O=C1C=CC2(O[C@@H](Cc3ccccc3)[C@H](Cc3ccccc3)O2)C(SC(=O)c2ccccc2)C1` (stereo not given in full), for which the GI50 was 1.54 µM (inactive) in the experiment on HOP-92; 0.158 µM (active) in the experiment with HCT-116; 0.586 µM (active) with UO-31; 1.18 µM (inactive) with UACC-257; 1.94 µM (inactive) with SNB-19; 0.594 µM (active) in the experiment with OVCAR-3. Further, the GI50 is 0.38 µM (active) with LOX IMVI; 2.07 µM (inactive) in the experiment on Malme-3M; 1.18 µM (inactive) in the experiment with HL-60; 1.69 µM (inactive) with NCI-H23; 1.26 µM (inactive) with IGROV-1; 2.75 µM (inactive) in the experiment on SK-OV-3. The GI50 is 0.209 µM (active) in the experiment with OVCAR-8; 0.292 µM (active) with RPMI-8226; 1.73 µM (inactive) in the experiment on COLO 205; 4.22 µM (inactive) in the experiment on A549; 1.26 µM (inactive) in the experiment on CAKI-1; 0.298 µM in the experiment on HCT-15. Further, the GI50 is 2.31 µM (inactive) in the experiment with KM12 and 1.95 µM (inactive) in the experiment with SF-295.
For the molecule `COc1cc2c(cc1Oc1c(Oc3c(O)c(OC)cc4c3C(CC(C)C)N(C)CC4)c(OC)cc3c1C(CC(C)C)N(C)CC3)C(CC(C)C)N(C)CC2` (stereo not given), the GI50 in the experiment with HOP-92 is 0.465 µM (active); in the experiment on HCT-116, 0.643 µM (active); with UO-31 it was 3.95 µM (inactive); with UACC-257, 1.45 µM (inactive); in the experiment with SNB-19, 0.582 µM (active); with OVCAR-3 it was 1.12 µM (inactive). For the same molecule, the GI50 in the experiment with LOX IMVI was 0.931 µM (active); in the experiment with Malme-3M, 1.11 µM (active); in the experiment on HL-60, 3.03 µM (inactive); in the experiment with NCI-H23, 0.787 µM (active); with IGROV-1, 3.02 µM (inactive); in the experiment on SK-OV-3 it was 1.12 µM (active). The GI50 was 0.618 µM (active) in the experiment on OVCAR-8; 2.34 µM (inactive) in the experiment with RPMI-8226; 0.351 µM (active) in the experiment with COLO 205; 0.429 µM (active) with A549; 0.575 µM (active) in the experiment with CAKI-1; 1.81 µM in the experiment with HCT-15. Besides, the GI50 was 0.721 µM (active) in the experiment on KM12 and 0.904 µM (active) with SF-295.
Take `O=C1C(=O)c2cc([N+](=O)[O-])ccc2-c2ccc([N+](=O)[O-])cc21`: the GI50 with HOP-92 was 0.21 µM (active); with HCT-116, 0.177 µM (active); in the experiment on UO-31, 1.51 µM (inactive); in the experiment with UACC-257, 1.2 µM (inactive); with SNB-19 it was 1.74 µM (inactive); in the experiment with OVCAR-3, 0.29 µM (active). The GI50 is 0.346 µM (active) with LOX IMVI; 1.97 µM (inactive) in the experiment on Malme-3M; 0.246 µM (active) in the experiment with HL-60; 0.682 µM (active) in the experiment on NCI-H23; 0.748 µM (active) in the experiment on IGROV-1; 2.51 µM (inactive) in the experiment on SK-OV-3. Besides, the GI50 with OVCAR-8 is 0.351 µM (active); with RPMI-8226 it was 0.302 µM (active); with COLO 205 it was 3.01 µM (inactive); in the experiment with A549 it was 2.52 µM (inactive); in the experiment with CAKI-1, 0.733 µM (active); in the experiment with HCT-15, 0.785 µM. Besides, the GI50 was 0.935 µM (active) with KM12 and 1.71 µM (inactive) with SF-295.
As for `Nc1c(C(=O)Nc2ccc(C3=NCCN3)cc2)cccc1C(=O)Nc1ccc(C2=NCCN2)cc1`, the GI50 in the experiment with HOP-92, in the experiment on HCT-116, in the experiment on UO-31, in the experiment with UACC-257, in the experiment on SNB-19 and with OVCAR-3 was > 100 µM (inactive) in each case. Besides, the GI50 in the experiment with LOX IMVI, in the experiment with Malme-3M, in the experiment with HL-60, in the experiment with NCI-H23, in the experiment on IGROV-1 and in the experiment on SK-OV-3 was > 100 µM (inactive) throughout. Moreover, the GI50 with OVCAR-8 is 65.3 µM (inactive); in the experiment on RPMI-8226, > 100 µM (inactive); in the experiment on COLO 205, > 100 µM (inactive); with A549, > 100 µM (inactive); in the experiment on CAKI-1 it was > 100 µM (inactive); in the experiment on HCT-15 it was > 100 µM. Moreover, the GI50 with KM12 and in the experiment on SF-295 was > 100 µM (inactive) throughout.
On to `[C-]#[N+]C(=C\c1ccc(O)cc1)/C(=C/c1ccc(O)cc1)[N+]#[C-]` [XANTOCILLIN], for which the GI50 in the experiment on HOP-92 is 2.9 µM (inactive); in the experiment with HCT-116, 0.6 µM (active); in the experiment on UO-31, 1.48 µM (inactive); in the experiment with UACC-257 it was 2.53 µM (inactive); in the experiment with SNB-19, 2.55 µM (inactive); with OVCAR-3, 2.33 µM (inactive). In addition, the GI50 in the experiment with LOX IMVI was 1.64 µM (inactive); in the experiment with Malme-3M, 0.871 µM (active); in the experiment on HL-60 it was 1.07 µM (active); in the experiment with NCI-H23, 2.31 µM (inactive); with IGROV-1, 2.13 µM (inactive); with SK-OV-3 it was 3.39 µM (inactive). Also, the GI50 is 1.28 µM (inactive) in the experiment on OVCAR-8; 4.39 µM (inactive) in the experiment on RPMI-8226; 20.1 µM (inactive) in the experiment on COLO 205; 5.94 µM (inactive) in the experiment with A549; 2.25 µM (inactive) in the experiment with CAKI-1; 1.45 µM with HCT-15. Besides, the results for the GI50 in the experiment on KM12 and in the experiment with SF-295 were 2.16 µM (inactive) and 4.02 µM (inactive), respectively.

Source of the values: ChEMBL document CHEMBL1201862, “PubChem BioAssay data set” (2004).
